pEC50: −log10 of the molar value.
Tests used:
[1] = target: T1, Human soluble guanylate cyclase enzyme (hsGC) (Homo sapiens, UniProt Q02108+Q02153); assay: Purified human sGC enzyme activity assay (without SNP); type: biochemical; settings: compound at 30 μM, absence of SNP; fold over DMSO control; Table 5A
T1 construct: purchased Enzo Inc. ALX-201-177
T1 sequence (Q02153 1-619): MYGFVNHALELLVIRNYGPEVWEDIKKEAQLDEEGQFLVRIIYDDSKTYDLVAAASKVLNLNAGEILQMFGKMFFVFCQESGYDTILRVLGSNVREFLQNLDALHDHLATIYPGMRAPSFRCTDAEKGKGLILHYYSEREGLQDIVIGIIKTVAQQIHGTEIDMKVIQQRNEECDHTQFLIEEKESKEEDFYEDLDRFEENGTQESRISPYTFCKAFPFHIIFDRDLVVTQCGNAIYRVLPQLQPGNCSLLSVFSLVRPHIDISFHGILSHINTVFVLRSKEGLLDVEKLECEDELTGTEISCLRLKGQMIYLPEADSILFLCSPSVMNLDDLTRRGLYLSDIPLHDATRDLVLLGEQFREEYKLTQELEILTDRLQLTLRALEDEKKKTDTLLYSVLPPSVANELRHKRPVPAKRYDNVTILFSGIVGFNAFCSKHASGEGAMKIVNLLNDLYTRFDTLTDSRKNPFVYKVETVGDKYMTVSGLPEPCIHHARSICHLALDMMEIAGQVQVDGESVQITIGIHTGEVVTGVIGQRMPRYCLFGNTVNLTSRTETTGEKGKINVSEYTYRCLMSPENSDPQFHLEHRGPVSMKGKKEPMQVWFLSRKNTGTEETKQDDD
T1 sequence (Q02108 1-690): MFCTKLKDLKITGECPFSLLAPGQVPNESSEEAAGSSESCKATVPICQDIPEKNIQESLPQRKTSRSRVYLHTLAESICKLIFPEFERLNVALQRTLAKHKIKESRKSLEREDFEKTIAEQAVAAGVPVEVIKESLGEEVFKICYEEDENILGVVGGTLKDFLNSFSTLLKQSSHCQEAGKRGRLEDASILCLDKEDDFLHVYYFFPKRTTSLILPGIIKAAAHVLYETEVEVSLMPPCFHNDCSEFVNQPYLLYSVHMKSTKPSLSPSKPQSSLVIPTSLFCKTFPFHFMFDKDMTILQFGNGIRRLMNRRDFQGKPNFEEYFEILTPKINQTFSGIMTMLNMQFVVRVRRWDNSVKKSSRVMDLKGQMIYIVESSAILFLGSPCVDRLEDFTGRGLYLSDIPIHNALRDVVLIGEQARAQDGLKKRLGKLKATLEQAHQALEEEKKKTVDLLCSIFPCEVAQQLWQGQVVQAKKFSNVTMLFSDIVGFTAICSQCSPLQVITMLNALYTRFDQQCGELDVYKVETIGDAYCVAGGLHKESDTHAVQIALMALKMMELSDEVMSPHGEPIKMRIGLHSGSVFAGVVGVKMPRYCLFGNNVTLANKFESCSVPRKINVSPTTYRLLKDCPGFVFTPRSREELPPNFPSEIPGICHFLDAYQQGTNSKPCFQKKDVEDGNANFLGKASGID
Procedure, shortened: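 Purified human sGC (5 ng) in 0.1 M Tris pH 8.0, 2 mM DTT, 2 mM MgCl2, 300 μM GTP, 1 mM IBMX, with compound at 10 or 30 μM final, 30 min at 37° C.; methanol-stopped. cGMP quantified against a standard curve; specific activity expressed as fold-change over DMSO control.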

Thoracic aortic rings = assay: Alternative thoracic aortic rings assay (Example 5; original resting tension as 100% inhibition); settings: rat thoracic aortic rings contracted with phenylephrine; for Aortic Ring Percent Relaxation at 1 μM: compound at 1 μM; for Aortic Ring Percent Relaxation at 3 μM: compound at 3 μM; for Aortic Ring Percent Relaxation at 10 μM: compound at 10 μM; for pEC50: read-out: Aortic Ring EC50
Procedure: Thoracic aortic rings were dissected from anesthetized (isoflurane) male Sprague-Dawley rats weighing 275-299 g. Tissues were immediately transferred to ice-cold Krebs-Henseleit solution, which had been aerated with 95% 02 and 5% CO2 for 30 minutes. Following removal of connective tissue, aortic sections were cut into 4 rings (˜2 mm each) and suspended on 2 L-shaped hooks, with one hook fixed at the bottom of the tissue bath (Schuler Organ Bath, Harvard Apparatus) and the other connected to a force transducer (F30 Force Transducer, Harvard Apparatus). Baths contained Krebs Henseleit solution (10 mL) heated to 37° C. and aerated with 95% 02 and 5% CO2. Rings were brought to an initial tension of 0.3-0.5 g and gradually raised to a resting tension of 1.0 g over 60 minutes. Rings were rinsed with Krebs Henseleit solution (heated to 37° C. and aerated with 95% 02 and 5% CO2) at 15 minute intervals until a stable baseline was obtained. Rings were considered to be stable after a resting tension of 1.0 g was maintained (for approximately 10 minutes) without need for adjustment. Rings were then contracted with 100 ng/mL phenylephrine by adding 100 μL of a 10 μg/mL phenylephrine stock solution. Tissues achieving a stable contraction were then treated in a cumulative, dose dependent manner with test compounds prepared in dimethylsulfoxide (DMSO). In some cases, tissues were rinsed three times over a 5 minute period with Krebs-Heinseleit's solution (heated to 37° C. and aerated with 95% 02 and 5% CO2), allowed to stabilize at baseline, and then used for characterization of other test articles or DMSO effects. All data were collected using the HSE-ACAD software provided by Harvard Apparatus. […] EC50 values were calculated from concentration-response curves generated with GraphPad Prism Software.
Biological Activity Measurement by the Thoracic Aortic Rings Assay
The biological data for some of a compound of Table I, in comparison with the known compound, BAY 41-2272, as the reference compound, determined by the thoracic aorta ring assay of Example 5 are presented in Table 6 below.

Row | Enzyme Activity (increase at 30 μM without SNP) [1] | pEC50 (Thoracic aortic rings) | Structure (SMILES) | Aortic Ring Percent Relaxation at 1 μM (Thoracic aortic rings) | Aortic Ring Percent Relaxation at 3 μM (Thoracic aortic rings) | Aortic Ring Percent Relaxation at 10 μM (Thoracic aortic rings)
1 | C (5 to <10 fold increase) | > 5.70 | Nc1nc(-c2cc(-c3ccon3)n(Cc3cccc(F)c3F)n2)ncc1NC(=O)C1(C(F)(F)F)CC1 [Compound 40] | G (100 to <120%) | G (100 to <120%) | G (100 to <120%)
2 | D (10 or <20 fold increase) | > 5.70 | Nc1nc(-c2cc(-c3ccon3)n(Cc3ccccc3F)n2)ncc1NC(=O)C1(F)CC1 [Compound 35] | G (100 to <120%) | H (higher than 120%) | H (higher than 120%)
3 | D (10 or <20 fold increase) | > 5.70 | Nc1nc(-c2cc(-c3ccon3)n(Cc3ccccc3F)n2)ncc1NC(=O)C1(c2ccccc2)CC1 [Compound 27] | F (80 to <100%) | G (100 to <120%) | G (100 to <120%)

— US20150342954A1, “2-BENZYL, 3-(PYRIMIDIN-2-YL) SUBSTITUTED PYRAZOLES USEFUL AS SGC STIMULATORS” (IRONWOOD PHARMACEUTICALS, INC., priority 2011, published 2015)
